The target of test [1] is CDK2/Cyclin E1 (Homo sapiens, UniProt P24941). Put plainly: CDK2/Cyclin E1 Biochemical Assay (TR-FRET), 0.060 mM ATP. The following applies: 0.15 μM Rb (Ser780)-biotin substrate, pH7.0, 60 min preincubation, 120 min reaction, room temperature. The method in brief: (§1)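 IC50 was from a four-parameter logistic fit of the 665/620 nm TR-FRET ratio (Eu anti-pRb Ser780 mAb, streptavidin-XL665). Compound (0-10 μM) was preincubated 60 min with enzyme, then reacted 120 min at room temperature with 0.15 μM biotinylated Rb (Ser780) peptide. ATP was 0.015 mM for CDK1/Cyclin B1 and 0.060 mM for CDK2/Cyclin E1; buffer was HEPES pH7.0.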

Test [2] deals with CDK1/Cyclin B1 (Homo sapiens, UniProt P06493). Description: CDK1/Cyclin B1 Biochemical Assay (TR-FRET), 0.015 mM ATP. Particulars: 0.15 μM Rb (Ser780)-biotin substrate, pH7.0, 60 min preincubation, 120 min reaction, room temperature. An outline of the steps: as §1
Chain of CDK1/Cyclin B1 (P06493 whole entry): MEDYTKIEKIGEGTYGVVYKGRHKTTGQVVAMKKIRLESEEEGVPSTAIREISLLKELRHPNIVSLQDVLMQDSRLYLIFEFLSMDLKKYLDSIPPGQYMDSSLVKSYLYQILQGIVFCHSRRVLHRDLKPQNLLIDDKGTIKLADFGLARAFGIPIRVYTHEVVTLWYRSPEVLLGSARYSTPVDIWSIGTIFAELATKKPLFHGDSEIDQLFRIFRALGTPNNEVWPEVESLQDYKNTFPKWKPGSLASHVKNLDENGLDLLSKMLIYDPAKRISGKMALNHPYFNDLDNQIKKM
Chain of CDK1/Cyclin B1 (P14635 whole entry partner): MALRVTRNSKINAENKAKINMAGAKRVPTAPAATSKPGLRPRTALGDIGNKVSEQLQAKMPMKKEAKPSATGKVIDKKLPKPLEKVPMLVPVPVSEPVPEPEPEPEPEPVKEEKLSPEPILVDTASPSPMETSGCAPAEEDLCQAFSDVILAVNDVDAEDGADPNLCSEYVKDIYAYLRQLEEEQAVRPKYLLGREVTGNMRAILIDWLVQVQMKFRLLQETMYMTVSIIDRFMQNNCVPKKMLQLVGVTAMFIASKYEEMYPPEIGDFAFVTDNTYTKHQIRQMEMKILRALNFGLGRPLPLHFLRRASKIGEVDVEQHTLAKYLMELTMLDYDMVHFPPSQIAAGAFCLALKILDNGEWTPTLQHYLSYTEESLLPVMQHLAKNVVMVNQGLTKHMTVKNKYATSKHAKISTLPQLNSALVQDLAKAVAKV

With `[2H]C([2H])([2H])N1c2c(F)cc(Nc3cc([C@@H]4CC[C@H](OC(=O)NC(C)C)C4)[nH]n3)cc2CS1(=O)=O` (single isomer, unassigned) [Example 289b, cis-3-(3-((7-fluoro-1-(methyl-d3)-2,2-dioxido-1,3-dihydrobenzo[c]isothiazol-5-yl)amino)-1H-pyrazol-5-yl)cyclopentyl isopropylcarbamate], the IC50 is 12 nM in test [1] and 116 nM in test [2].
The matching figures for `[2H]C([2H])([2H])N1c2c(F)cc(Nc3cc([C@@H]4CC[C@H](OC(=O)NCCC)C4)[nH]n3)cc2CS1(=O)=O` (single isomer, unassigned) [Example 290a, cis-3-(3-((7-fluoro-1-(methyl-d3)-2,2-dioxido-1,3-dihydrobenzo[c]isothiazol-5-yl)amino)-1H-pyrazol-5-yl)cyclopentyl propylcarbamate]: 16 nM and 356 nM.
As to `[2H]C([2H])([2H])N1c2c(F)cc(Nc3cc([C@@H]4CC[C@H](OC(=O)NCCC)C4)[nH]n3)cc2CS1(=O)=O` (single isomer, unassigned) [Example 290b, cis-3-(3-((7-fluoro-1-(methyl-d3)-2,2-dioxido-1,3-dihydrobenzo[c]isothiazol-5-yl)amino)-1H-pyrazol-5-yl)cyclopentyl propylcarbamate], the IC50 is 7.5 nM in test [1] and 94 nM in test [2].
The matching figures for `[2H]C([2H])([2H])N1c2c(F)cc(Nc3cc([C@@H]4CC[C@H](OC(=O)NC5(C)CC5)C4)[nH]n3)cc2CS1(=O)=O` (single isomer, unassigned) [Example 291a, cis-3-(3-((7-fluoro-1-(methyl-d3)-2,2-dioxido-1,3-dihydrobenzo[c]isothiazol-5-yl)amino)-1H-pyrazol-5-yl)cyclopentyl(1-methylcyclopropyl)carbamate]: 2 nM and 76 nM.
The matching figures for `[2H]C([2H])([2H])N1c2c(F)cc(Nc3cc([C@@H]4CC[C@H](OC(=O)NC5(C)CC5)C4)[nH]n3)cc2CS1(=O)=O` (single isomer, unassigned) [Example 291b, cis-3-(3-((7-fluoro-1-(methyl-d3)-2,2-dioxido-1,3-dihydrobenzo[c]isothiazol-5-yl)amino)-1H-pyrazol-5-yl)cyclopentyl(1-methylcyclopropyl)carbamate]: 1.3 nM and 48 nM.
The matching figures for `CC(C)NC(=O)O[C@H]1CC[C@@H](c2cc(Nc3cc4c(cc3F)NS(=O)(=O)C4)n[nH]2)C1` (single isomer, unassigned) [Example 292a, cis-3-(3-((6-fluoro-2,2-dioxido-1,3-dihydrobenzo[c]isothiazol-5-yl)amino)-1H-pyrazol-5-yl)cyclopentyl isopropylcarbamate]: 13 nM and 1410 nM.
For `CC(C)NC(=O)O[C@H]1CC[C@@H](c2cc(Nc3cc4c(cc3F)NS(=O)(=O)C4)n[nH]2)C1` (single isomer, unassigned) [Example 292b, cis-3-(3-((6-fluoro-2,2-dioxido-1,3-dihydrobenzo[c]isothiazol-5-yl)amino)-1H-pyrazol-5-yl)cyclopentyl isopropylcarbamate], the concentration for half-maximal inhibition (IC50) worked out at 5.2 nM in test [1] and 457 nM in test [2].
The matching figures for `CC(C)NC(=O)O[C@H]1CC[C@@H](c2cc(Nc3cc4c(cc3F)N(CCO)S(=O)(=O)C4)n[nH]2)C1` (single isomer, unassigned) [Example 296a, cis-3-(3-((6-fluoro-1-(2-hydroxyethyl)-2,2-dioxido-1,3-dihydrobenzo[c]isothiazol-5-yl)amino)-1H-pyrazol-5-yl)cyclopentyl isopropylcarbamate]: 15 nM and 800 nM.
